Data on 14 molecules can be found in patent publication US20120220562A1, “Anti-Viral Compounds” (ABBOTT LABAORATORIES, priority 2011, published 2012).

The term EC50 denotes the midpoint of the concentration-response curve.

In the assay the test system is HCV 1b-Con1 replicon. Nature of the assay: HCV 1b-Con1 replicon assay in the presence of 5% FBS. The assay is classed as cell-based. Conditions: Hepatitis C virus. Background: In antiviral work, replicon cells carry a viral genome segment that copies itself.

Regarding `COC(=O)N[C@H](C(=O)N1CCC[C@H]1c1nc2cc(F)c([C@H]3CC[C@H](c4cc5[nH]c([C@@H]6CCCN6C(=O)[C@@H](NC(=O)OC)C(C)C)nc5cc4F)N3c3cc(F)c(N4CCC(Cc5ccccc5)CC4)c(F)c3)cc2[nH]1)C(C)C` [Example 4.44, methyl {(2S)-1-[(2S)-2-{6-[(2R,5R)-1-[4-(4-benzylpiperidin-1-yl)-3,5-difluorophenyl]-5-{5-fluoro-2-[(2S)-1-{(2S)-2-[(methoxycarbonyl)amino]-3-methylbutanoyl}pyrrolidin-2-yl]-1H-benzimidazol-6-yl}pyrrolidin-2-yl]-5-fluoro-1H-benzimidazol-2-yl}pyrrolidin-1-yl]-3-methyl-1-oxobutan-2-yl}carbamate], the EC50 is under 0.1 nM.
For `COC(=O)N[C@H](C(=O)N1CCC[C@H]1c1nc2cc(F)c([C@H]3CC[C@H](c4cc5[nH]c([C@@H]6CCCN6C(=O)[C@@H](NC(=O)OC)C6CCCC6)nc5cc4F)N3c3cc(F)c(N4CCN(c5ccc(C(F)(F)F)cc5)CC4)c(F)c3)cc2[nH]1)C1CCCC1` [Example 4.45, dimethyl ([(2R,5R)-1-(3,5-difluoro-4-{4-[4-(trifluoromethyl)phenyl]piperazin-1-yl}phenyl)pyrrolidine-2,5-diyl]bis{(5-fluoro-1H-benzimidazole-6,2-diyl)(2S)pyrrolidine-2,1-diyl[(1S)-1-cyclopentyl-2-oxoethane-2,1-diyl]})bis carbamate] the value was under 0.1 nM; for `COC(=O)N[C@H](C(=O)N1CCC[C@H]1c1nc2cc(F)c([C@H]3CC[C@H](c4cc5[nH]c([C@@H]6CCCN6C(=O)[C@@H](NC(=O)OC)C6CCOCC6)nc5cc4F)N3c3cc(F)c(N4CCN(c5ccc(C(F)(F)F)cc5)CC4)c(F)c3)cc2[nH]1)C1CCOCC1` [Example 4.46, dimethyl ([(2R,5R)-1-(3,5-difluoro-4-{4-[4-(trifluoromethyl)phenyl]piperazin-1-yl}phenyl)pyrrolidine-2,5-diyl]bis{(5-fluoro-1H-benzimidazole-6,2-diyl)(2S)pyrrolidine-2,1-diyl[(1S)-2-oxo-1-(tetrahydro-2H-pyran-4-yl)ethane-2,1-diyl]})biscarbamate], under 0.1 nM.
For `COC(=O)N[C@H](C(=O)N1CCC[C@H]1c1nc2ccc([C@H]3CC[C@H](c4ccc5nc([C@@H]6CCCN6C(=O)[C@@H](NC(=O)OC)C(C)C)[nH]c5c4)N3c3cc(F)c(N4CCC(Cc5ccccc5)CC4)c(F)c3)cc2[nH]1)C(C)C` [Example 4.47, methyl {(2S)-1-[(2S)-2-{6-[(2R,5R)-1-[4-(4-benzylpiperidin-1-yl)-3,5-difluorophenyl]-5-{2-[(2S)-1-{(2S)-2-[(methoxycarbonyl)amino]-3-methylbutanoyl}pyrrolidin-2-yl]-1H-benzimidazol-6-yl}pyrrolidin-2-yl]-1H-benzimidazol-2-yl}pyrrolidin-1-yl]-3-methyl-1-oxobutan-2-yl}carbamate] the value was under 0.1 nM; for `COC(=O)N[C@H](C(=O)N1CCC[C@H]1c1nc2cc([C@H]3CC[C@H](c4ccc5[nH]c([C@@H]6CCCN6C(=O)[C@@H](NC(=O)OC)C(C)C)nc5c4)N3c3cc(F)c(N4CCOC(c5ccccc5)C4)c(F)c3)ccc2[nH]1)C(C)C` (stereo partly drawn) [Example 4.49, methyl {(2S)-1-[(2S)-2-{5-[(2R,5R)-1-[3,5-difluoro-4-(2-phenylmorpholin-4-yl)phenyl]-5-{2-[(2S)-1-{(2S)-2-[(methoxycarbonyl)amino]-3-methylbutanoyl}pyrrolidin-2-yl]-1H-benzimidazol-5-yl}pyrrolidin-2-yl]-1H-benzimidazol-2-yl}pyrrolidin-1-yl]-3-methyl-1-oxobutan-2-yl}carbamate], under 0.1 nM.
In the case of `COC(=O)N[C@H](C(=O)N1CCC[C@H]1c1nc2cc([C@H]3CC[C@H](c4ccc5[nH]c([C@@H]6CCCN6C(=O)[C@@H](NC(=O)OC)C(C)C)nc5c4)N3c3cc(F)c(N4CCCCC4c4ccccc4)c(F)c3)ccc2[nH]1)C(C)C` (stereo partly drawn) [Example 4.50, methyl {(2S)-1-[(2S)-2-{5-[(2R,5R)-1-[3,5-difluoro-4-(2-phenylpiperidin-1-yl)phenyl]-5-{2-[(2S)-1-{(2S)-2-[(methoxycarbonyl)amino]-3-methylbutanoyl}pyrrolidin-2-yl]-1H-benzimidazol-5-yl}pyrrolidin-2-yl]-1H-benzimidazol-2-yl}pyrrolidin-1-yl]-3-methyl-1-oxobutan-2-yl}carbamate], the EC50 is under 0.1 nM.
In the case of `COC(=O)N[C@H](C(=O)N1CCC[C@H]1c1nc2cc(C3CCC(c4cc5nc([C@@H]6CCCN6C(=O)[C@@H](NC(=O)OC)C(C)C)[nH]c5cc4F)N3c3cc(F)c(N4C[C@@H](C)O[C@@H](C)C4)c(F)c3)c(F)cc2[nH]1)C(C)C` (some centres unmarked) [Example 4.51] it was under 0.1 nM; in that of `COC(=O)N[C@H](C(=O)N1CCC[C@H]1c1nc2cc([C@H]3CC[C@@H](c4cc5nc([C@@H]6CCCN6C(=O)[C@@H](NC(=O)OC)C(C)C)[nH]c5cc4F)N3c3cc(F)c(N4CCCCC4)c(F)c3)c(F)cc2[nH]1)C(C)C` [Example 4.52, methyl {(2S)-1-[(2S)-2-{5-[(2S,5R)-1-[3,5-difluoro-4-(piperidin-1-yl)phenyl]-5-{6-fluoro-2-[(2S)-1-{(2S)-2-[(methoxycarbonyl)amino]-3-methylbutanoyl}pyrrolidin-2-yl]-1H-benzimidazol-5-yl}pyrrolidin-2-yl]-6-fluoro-1H-benzimidazol-2-yl}pyrrolidin-1-yl]-3-methyl-1-oxobutan-2-yl}carbamate], under 0.1 nM; in that of `COC(=O)N[C@H](C(=O)N1CCC[C@H]1c1nc2cc([C@H]3CC[C@H](c4cc5nc([C@@H]6CCCN6C(=O)[C@@H](NC(=O)OC)C(C)C)[nH]c5cc4F)N3c3cc(F)c(N4CCC5(CCCCC5)CC4)c(F)c3)c(F)cc2[nH]1)C(C)C` [Example 4.53, methyl {(2S)-1-[(2S)-2-{5-[(2R,5R)-1-[4-(3-azaspiro[5.5]undec-3-yl)-3,5-difluorophenyl]-5-{6-fluoro-2-[(2S)-1-{(2S)-2-[(methoxycarbonyl)amino]-3-methylbutanoyl}pyrrolidin-2-yl]-1H-benzimidazol-5-yl}pyrrolidin-2-yl]-6-fluoro-1H-benzimidazol-2-yl}pyrrolidin-1-yl]-3-methyl-1-oxobutan-2-yl}carbamate], under 0.1 nM.
Take `COC(=O)N[C@H](C(=O)N1CCC[C@H]1c1nc2cc([C@H]3CC[C@H](c4cc5nc([C@@H]6CCCN6C(=O)[C@@H](NC(=O)OC)C(C)C)[nH]c5cc4F)N3c3cc(F)c(N4CCC(C5CCCCC5)CC4)c(F)c3)c(F)cc2[nH]1)C(C)C` [Example 4.54, methyl {(2S)-1-[(2S)-2-{5[(2R,5R)-1-[4-(4-cyclohexylpiperidin-1-yl)-3,5-difluorophenyl]-5-{6-fluoro-2-[(2S)-1-{(2S)-2-[(methoxycarbonyl)amino]-3-methylbutanoyl}pyrrolidin-2-yl]-1H-benzimidazol-5-yl}pyrrolidin-2-yl]-6-fluoro-1H-benzimidazol-2-yl}pyrrolidin-1-yl]-3-methyl-1-oxobutan-2-yl}carbamate]: the EC50 is under 0.1 nM.
In the case of `COC(=O)N[C@H](C(=O)N1CCC[C@H]1c1nc2cc([C@H]3CC[C@H](c4cc5nc([C@@H]6CCCN6C(=O)[C@@H](NC(=O)OC)C(C)C)[nH]c5cc4F)N3c3cc(F)c(N4CCO[C@@H](c5ccccc5)C4)c(F)c3)c(F)cc2[nH]1)C(C)C` [Example 4.55, methyl {(2S)-1-[(2S)-2-{5-[(2R,5R)-1-{3,5-difluoro-4-[(2S)-2-phenylmorpholin-4-yl]phenyl}-5-{6-fluoro-2-[(2S)-1-{(2S)-2-[(methoxycarbonyl)amino]-3-methylbutanoyl}pyrrolidin-2-yl]-1H-benzimidazol-5-yl}pyrrolidin-2-yl]-6-fluoro-1H-benzimidazol-2-yl}pyrrolidin-1-yl]-3-methyl-1-oxobutan-2-yl}carbamate] it was under 0.1 nM; in that of `COC(=O)N[C@H](C(=O)N1CCC[C@H]1c1nc2cc([C@H]3CC[C@H](c4cc5nc([C@@H]6CCCN6C(=O)[C@@H](NC(=O)OC)C(C)C)[nH]c5cc4F)N3c3cc(F)c(N4CCC(c5ccc(F)cc5F)CC4)c(F)c3)c(F)cc2[nH]1)C(C)C` [Example 4.56, methyl {(2S)-1-[(2S)-2-{5-[(2R,5R)-1-{4-[4-(2,4-difluorophenyl)piperidin-1-yl]-3,5-difluorophenyl}-5-{6-fluoro-2-[(2S)-1-{(2S)-2-[(methoxycarbonyl)amino]-3-methylbutanoyl}pyrrolidin-2-yl]-1H-benzimidazol-5-yl}pyrrolidin-2-yl]-6-fluoro-1H-benzimidazol-2-yl}pyrrolidin-1-yl]-3-methyl-1-oxobutan-2-yl}carbamate], under 0.1 nM.
For the molecule `COC(=O)N[C@H](C(=O)N1CCC[C@H]1c1nc2cc([C@H]3CC[C@H](c4cc5nc([C@@H]6CCCN6C(=O)[C@@H](NC(=O)OC)C(C)C)[nH]c5cc4F)N3c3cc(F)c(N4CCC(c5ccc(F)cc5)CC4)c(F)c3)c(F)cc2[nH]1)C(C)C` [Example 4.57, methyl {(2S)-1-[(2S)-2-{5-[(2R,5R)-1-{3,5-difluoro-4-[4-(4-fluorophenyl)piperidin-1-yl]phenyl}-5-{6-fluoro-2-[(2S)-1-{(2S)-2-[(methoxycarbonyl)amino]-3-methylbutanoyl}pyrrolidin-2-yl]-1H-benzimidazol-5-yl}pyrrolidin-2-yl]-6-fluoro-1H-benzimidazol-2-yl}pyrrolidin-1-yl]-3-methyl-1-oxobutan-2-yl}carbamate], the EC50 was under 0.1 nM.
For `COC(=O)N[C@H](C(=O)N1CCC[C@H]1c1nc2cc([C@H]3CC[C@H](c4ccc5[nH]c([C@@H]6CCCN6C(=O)[C@@H](NC(=O)OC)C(C)C)nc5c4)N3c3cc(F)c(N4CCN(c5ccccc5)CC4)c(F)c3)ccc2[nH]1)C(C)C` [Example 4.58, methyl {(2S)-1-[(2S)-2-{5-[(2R,5R)-1-[3,5-difluoro-4-(4-phenylpiperazin-1-yl)phenyl]-5-{2-[(2S)-1-{(2S)-2-[(methoxycarbonyl)amino]-3-methylbutanoyl}pyrrolidin-2-yl]-1H-benzimidazol-5-yl}pyrrolidin-2-yl]-1H-benzimidazol-2-yl}pyrrolidin-1-yl]-3-methyl-1-oxobutan-2-yl}carbamate] the value was under 0.1 nM.
